Assay: xn = mol fraction of the nth substance listed
Conditions: 100 kPa, Liquid; for mass density: Vibrating tube method; for viscosity: Concentric cylinders viscometry

CCC=O [propanal] + CC(C)O
Conditions | mass density, 308.15 K [kg/m3] | mass density, 313.15 K [kg/m3] | mass density, 318.15 K [kg/m3] | mass density, 323.15 K [kg/m3] | viscosity, 313.15 K [mPa·s] | viscosity, 318.15 K [mPa·s] | viscosity, 323.15 K [mPa·s]
x1 = 0.0812 | 776.7 | 771.8 | 766.8 | 761.6 | 1.31 | 1.14 | 0.99
x1 = 0.16 | 780.9 | 775.5 | 770.2 | 764.6 | 1.24 | 1.08 | 0.94
x1 = 0.24 | 784.3 | 778.8 | 773.1 | 767.1 | 1.17 | 1.01 | 0.87
x1 = 0.3499 | 788.2 | 782.4 | 776.5 | 770 | 1.06 | 0.91 | 0.79
x1 = 0.4402 | 790.5 | 784.3 | 778.4 | 771.7 | 0.96 | 0.83 | 0.72
x1 = 0.5619 | 792 | 785.7 | 779.7 | 772.8 | 0.83 | 0.71 | 0.62
x1 = 0.6483 | 792 | 785.8 | 779.7 | 772.8 | 0.72 | 0.63 | 0.55
x1 = 0.74 | 791.4 | 785.3 | 778.9 | 772.4 | 0.61 | 0.53 | 0.47
x1 = 0.85 | 789.5 | 783.3 | 777.2 | 770.9 | 0.47 | 0.42 | 0.38
x1 = 0.94 | 786.4 | 780.8 | 775.4 | 769.4 | 0.36 | 0.33 | 0.3
x1 = 1 | 784.5 | 779 | 773.5 | 768.2 | 0.28 | 0.27 | 0.25
